Format in all cases: cell-based
Series [1] deals with Acinetobacter baumannii ABA19-1. To be noted: ABA19-1. The essentials:
(§1)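 Minimal inhibitory concentrations are measured following CLSI microdilution guidance in MH broth. Test concentrations run from 64 down to 0.03 mg/L in doubling steps, with a final bacterial load of (2-4) × 10^5 CFU/mL and 16-20 h incubation at 35-37°C.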

The subject of series [2] is Acinetobacter baumannii NCTC 13304 (OXA-27). To be noted: NCTC 13304. In a few lines:
as §1

For series [3], the system named is Escherichia coli ATCC BAA-2340 (KPC). To be noted: ATCC BAA-2340. The essentials:
as §1

The test system of series [4] is Escherichia coli ATCC BAA-2523. To be noted: ATCC BAA-2523. In a few lines:
as §1

The test system of series [5] is Klebsiella pneumoniae ATCC BAA-1705 (KPC). As to conditions: ATCC BAA-1705. In a few lines: as §1
Series [6] has as its system Klebsiella pneumoniae KPN+19-15. To be noted: KPN+19-15. In a few lines: as §1
The test system of series [7] is Pseudomonas aeruginosa ATCC 27853. As to conditions: ATCC 27853. In a few lines: as §1
Series [8] relates to Pseudomonas aeruginosa PAE19-3. To be noted: PAE19-3. In a few lines:
as §1

Series [9] can be described thus: Nephrotoxicity assay: in vitro cytotoxicity of HK-2 cells by CCK-8 assay. As to conditions: human, HK-2 cells (human renal), 72 h incubation with drug-containing medium. The essentials: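 HK-2 human renal cells in RPMI-1640 with 10% FBS were exposed to compounds at final 12.5–500 µg/mL for 72 h, then CCK-8 for 3 h and OD450 read. Viability was normalised to drug-free wells; IC50 came from logarithmic regression over three repeats, with polymyxin B as positive drug.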
On the technique in general: Formazan colour is commonly taken as a measure of viable cells.

What is called MIC is the least concentration at which growth counts as inhibited. Read a low MIC as inhibition by little substance. In general, IC50 refers to the concentration needed to halve the response being measured. Low readings indicate greater potency, high ones weaker potency.

Values after ≈ are worked out from the molar mass of the structure shown. Bridge positions count the residues as written; N and C are the ends. Square brackets hold non-standard residues; d marks the D form. Peptide text beside a SMILES is read from it. * marks the point of attachment. Heptanoyl(6-Me) = CC(C)CCCCC(=O)*; dOrn = NCCC[C@@H](N)C(=O)O; Nonanoyl = CCCCCCCCC(=O)*; X1 = CC[C@H](C)CCCCC(=O)*; Octanoyl = CCCCCCCC(=O)*; Orn = NCCC[C@H](N)C(=O)O; Dab = NCC[C@H](N)C(=O)O

As for `CCCCCCCCC(=O)N[C@@H](CCN)C(=O)N[C@H](C(=O)N[C@H](CCCN)C(=O)N[C@H]1CCNC(=O)[C@H]([C@@H](C)O)NC(=O)[C@H](CCN)NC(=O)[C@H](CCN)NC(=O)[C@H]([C@@H](C)O)NC(=O)[C@@H](Cc2ccccc2)NC(=O)[C@H](CCN)NC1=O)[C@@H](C)O` [Compound 25, Nonanoyl-Dab-Thr-D-Orn-ring(4-10)[Dab-Dab-D-Phe-Thr-Dab-Dab-Thr]] (Nonanoyl-[Dab]T[dOrn][Dab][Dab][dF]T[Dab][Dab]T; lactam 4-C), the minimal inhibitory concentration (MIC) in series [1] is 0.125 µg/mL (≈ 0.104 µM); in series [2], 0.06 µg/mL (≈ 0.0498 µM); in [3], no more than 0.03 µg/mL; in series [4], no more than 0.03 µg/mL; in [5], 0.06 µg/mL (≈ 0.0498 µM); in series [6], 0.125 µg/mL (≈ 0.104 µM). Besides, the minimal inhibitory concentration (MIC) in series [7] was determined as 0.5 µg/mL (≈ 0.415 µM); in series [8], 2 µg/mL (≈ 1.66 µM). In [9], this compound came in with a concentration for half-maximal inhibition (IC50) at 72 h of 338 ± 15.1 µg/mL (≈ 280 µM).

For the compound `CC[C@H](C)CCCCC(=O)N[C@@H](CCN)C(=O)N[C@H](C(=O)N[C@@H](CCCN)C(=O)N[C@H]1CCNC(=O)[C@H]([C@@H](C)O)NC(=O)[C@H](CCN)NC(=O)[C@H](CCN)NC(=O)[C@H]([C@@H](C)O)NC(=O)[C@@H](Cc2ccccc2)NC(=O)[C@H](CCN)NC1=O)[C@@H](C)O` [Compound 26, (S)-6-methyloctanoyl-Dab-Thr-Orn-ring(4-10)[Dab-Dab-D-Phe-Thr-Dab-Dab-Thr]] (X1-[Dab]T[Orn][Dab][Dab][dF]T[Dab][Dab]T; lactam 4-C), the MIC is reported as 0.125 µg/mL (≈ 0.104 µM) in [1]; 0.06 µg/mL (≈ 0.0498 µM) in [2]; no more than 0.03 µg/mL in series [3]; no more than 0.03 µg/mL in series [4]; no more than 0.03 µg/mL in [5]; no more than 0.03 µg/mL in series [6]. Also, the MIC in series [7] is listed as no more than 0.03 µg/mL; in series [8] it was 0.25 µg/mL (≈ 0.207 µM). The IC50 at 72 h in series [9] was greater than 500 µg/mL.

On to `CC(C)CCCCC(=O)N[C@@H](CCN)C(=O)N[C@H](C(=O)N[C@@H](CCCN)C(=O)N[C@H]1CCNC(=O)[C@H]([C@@H](C)O)NC(=O)[C@H](CCN)NC(=O)[C@H](CCN)NC(=O)[C@H]([C@@H](C)O)NC(=O)[C@@H](Cc2ccccc2)NC(=O)[C@H](CCN)NC1=O)[C@@H](C)O` [Compound 27, 6-methylheptanoyl-Dab-Thr-Orn-ring(4-10)[Dab-Dab-D-Phe-Thr-Dab-Dab-Thr]] ({Heptanoyl(6-Me)}-[Dab]T[Orn][Dab][Dab][dF]T[Dab][Dab]T; lactam 4-C), for which the MIC in [1] was 0.125 µg/mL (≈ 0.105 µM); in series [2], 0.06 µg/mL (≈ 0.0504 µM); in [3], no more than 0.03 µg/mL; in [4] it was no more than 0.03 µg/mL; in series [5], no more than 0.03 µg/mL; in [6] it was no more than 0.03 µg/mL. Also, the minimal inhibitory concentration (MIC) was no more than 0.03 µg/mL in series [7] and 0.25 µg/mL (≈ 0.21 µM) in series [8]. In addition, the IC50 at 72 h in series [9] was greater than 500 µg/mL.

With `CCCCCCCC(=O)N[C@@H](CCN)C(=O)N[C@H](C(=O)N[C@@H](CCCN)C(=O)N[C@H]1CCNC(=O)[C@H]([C@@H](C)O)NC(=O)[C@H](CCN)NC(=O)[C@H](CCN)NC(=O)[C@H]([C@@H](C)O)NC(=O)[C@@H](Cc2ccccc2)NC(=O)[C@H](CCN)NC1=O)[C@@H](C)O` [Compound 28, Octanoyl-Dab-Thr-Orn-ring(4-10)[Dab-Dab-D-Phe-Thr-Dab-Dab-Thr]] (Octanoyl-[Dab]T[Orn][Dab][Dab][dF]T[Dab][Dab]T; lactam 4-C), the MIC in series [1] is on record as 0.125 µg/mL (≈ 0.105 µM); in [2], 0.06 µg/mL (≈ 0.0504 µM); in series [3] it was no more than 0.03 µg/mL; in [4] it was no more than 0.03 µg/mL; in [5] it was no more than 0.03 µg/mL; in series [6] it was no more than 0.03 µg/mL. The figures for the minimal inhibitory concentration (MIC) in series [7] and in series [8] were no more than 0.03 µg/mL and 0.25 µg/mL (≈ 0.21 µM), respectively. In series [9], the IC50 at 72 h is greater than 500 µg/mL.

The values are drawn from patent publication EP4725957A1, “GROUP OF CYCLIC ALKALINE LIPOPEPTIDE COMPOUNDS, AND PREPARATION METHOD THEREFOR AND USE THEREOF” (Institute of Medicinal Biotechnology, Chinese Academy of …, priority 2023, dated 2024).
